One series can be described thus: Effect on heart rate. In kind it is in vivo, mongrel dogs. Conditions: Table 7; dogs, 1 mg/kg, femoral vein. On the procedure: (§1) In experiments (a), (b), (c) and (d), 3-4 male or female mongrel dogs (weight: 10-20 Kg) as one group were anesthetized by intravenous administration of 30 mg/kg of pentobarbital-Na. All compounds were dissolved in polyethylene glycol 400 and administered to the femoral vein.
(d) Effect on heart rate (beats/min.)

Series [1] relates to main artery of the dogs' organ. Put plainly: Effect on organ blood flow.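 Also: percent change relative to blood flow before compound administration.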 It counts as in vivo, mongrel dogs. As to conditions: Canis lupus familiaris, iv, Table 7, femoral vein. Here is the method: as §1
(b) Effect on organ blood flow M (%)
In this test, 1 mg/kg of each compound shown in Tables 5 and 7 is administered to the dogs and an electromagnetic probe is attached to the main artery of the dogs' organ to measure the flow of blood.

Another series in a line: in vivo. As to conditions: mouse, male dd-strain mice. From the text:
The test compounds were orally administered to male dd-strain mice weighing 20-25 g.

In series [2] the test system is main artery of the dogs' organ. Put plainly: Effect on organ blood flow.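 Also: percent change relative to blood flow before compound administration.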 It counts as in vivo, mongrel dogs. Conditions: Canis lupus familiaris, iv, Table 5, 0.1 mg administration, femoral vein.
For another series, the system named is β1-adrenergic receptor. Put plainly: β1 blocking activity (inhibition of Isoproterenol-induced increase in heart rate). It counts as in vivo, mongrel dogs. Conditions: Table 6; dogs, test compound 0.1 mg/kg; 0.5 μg/kg Isoproterenol i.v. Here is the method: as §1
(c-2) β1 blocking activity
In this test, 0.5 μg/kg of Isoproterenol is intravenously administered to the dogs to cause an increase in the heart rate.

In a further series the test system is α-adrenergic receptor. Put plainly: α blocking activity (inhibition of Norepinephrine-induced increase in systolic blood pressure). Conditions: Table 6; dogs, test compound 0.1 mg/kg; 3 μg/kg Norepinephrine i.v. In kind it is in vivo, mongrel dogs. On the procedure:
as §1
(c-1) α blocking activity
In this test, 3 μg/kg of Norepinephrine is intravenously administered to the dogs to cause an increase in systolic blood pressure.

Another series deals with β2-adrenergic receptor. Put plainly: β2 blocking activity (inhibition of Isoproterenol-induced decrease in diastolic blood pressure). Conditions: Table 6; dogs, test compound 0.1 mg/kg; 0.5 μg/kg Isoproterenol i.v. In kind it is in vivo, mongrel dogs. Here is the method:
as §1
(c-3) β2 blocking activity
In this test, 0.5 μg/kg of Isoproterenol is intravenously administered to the dogs to cause a decrease in diastolic blood pressure.

Where [3] appears, read: read-out: Organ blood flow, Crotch (percentage change).
The mark [4] stands for this setting: read-out: Organ blood flow, Malleus (percentage change).

Read-outs that look alike come from different tables or passages of the source.

`Cc1cccc(OCC(O)CNCCN(Cc2ccccc2)C(C)COc2ccccc2)c1` (stereo not drawn) [Compound 29, 1-(3-methylphenoxy)-3-{β-[N-benzyl-N-(1-methyl-2-phenoxyethyl)]aminoethyl} amino-2-propanol]: in “Effect on heart rate”, the “Heart rate (decrease)” value was -4 beats/min. Further, the change in vivo at 1 mg/kg in series [1] (setting [3]) was -45%; in series [1] (setting [4]) it was 100%.
In the case of `CCOC(=O)Cc1ccc(OCC(O)CNCCN(Cc2ccccc2)C(C)COc2ccccc2)cc1` (stereo not drawn) [Compound 26, 1-(4-ethoxycarbonylmethylphenoxy)-3-{β-[N-benzyl-N-(1-methyl-2-phenoxyethyl)]aminoethyl}amino-2-propanol], the “Heart rate (decrease)” value in the series “Effect on heart rate” is -20 beats/min. Besides, the change in vivo at 1 mg/kg in series [1] (setting [3]) is -12%; in series [1] (setting [4]) it was 67%. Also, in the series “in vivo” (Table 7, oral), the median lethal dose (LD50) is greater than 1000 mg/kg.
Consider `CC(COc1ccccc1)N(CCNCC(O)COc1ccc(CC(N)=O)cc1)Cc1ccccc1` (stereo not drawn) [Compound 30, 1-(4-carbamoylmethylphenoxy)-3-{β-[N-benzyl-N-(1-methyl-2-phenoxyethyl)]aminoethyl} amino-2-propanol], for which, in the series “Effect on heart rate”, the “Heart rate (decrease)” value is on record as -5 beats/min. In addition, the change in vivo at 1 mg/kg in series [1] (setting [3]) is -19%; in series [1] (setting [4]), 10%.
In the case of `CC(=O)Nc1ccc(OCC(O)CNCCN(Cc2ccccc2)C(C)COc2ccccc2)cc1` (stereo not drawn) [Compound 27, 1-(4-acetamidophenoxy)-3-{β-[N-benzyl-N-(1-methyl-2-phenoxyethyl)]aminoethyl} amino-2-propanol], the “Heart rate (decrease)” value in “Effect on heart rate” is -13 beats/min. In addition, the change in vivo at 1 mg/kg amounted to 3% in series [1] (setting [3]) and 100% in series [1] (setting [4]). Further, in the series “in vivo” (Table 7, oral), the 50% lethal dose (LD50) is greater than 1000 mg/kg.
In the case of `CCCC(=O)Nc1ccc(OCC(O)CNCC2COc3ccccc3O2)c(C(C)=O)c1` (stereo not shown) [Compound 4, 1-(4-butyrylamido-2-acetyl)phenoxy-3-(1,4-benzodioxane-2-methaneamino)-2-propanol], the change in vivo at 0.1 mg is -18% in series [2] (setting [3]) and -46% in series [2] (setting [4]). The same compound showed an LD50 in the series “in vivo” (Table 5, oral) greater than 1000 mg/kg.
As for `CCOC(=O)Cc1ccc(OCC(O)CNC(C)CCc2ccccc2)cc1` (stereo not shown) [Compound 14, 1-(4-ethoxycarbonylmethylphenoxy)-3-(1-methyl-3-phenylpropylamino)-2-propanol], in the series with β1-adrenergic receptor, the “β1 blocking activity, percentage inhibition” value was -11%. Further, the “α blocking activity, percentage inhibition” value with α-adrenergic receptor was “+13%”. The “β2 blocking activity, percentage inhibition” value in the series on β2-adrenergic receptor is “+2%”. The compound also showed an LD50 in the series “in vivo” (Table 6, oral) greater than 1000 mg/kg.
The matching figures for `CC(CCc1ccccc1)NCC(O)COc1ccc(CC(=O)NN)cc1` (stereo not shown) [Compound 18, 1-(4-hydrazinocarbonylmethylphenoxy)-3-(1-methyl-3-phenylpropylamino)-2-propanol]: -3%, “+10%”, “+2%” and greater than 1000 mg/kg.
Take `CC(CCc1ccccc1)NCC(O)COc1cccc(CC(N)=O)c1` (stereo not shown) [Compound 20, 1-(3-carbamoylmethylphenoxy)-3-(1-methyl-3-phenylpropylamino)-2-propanol]: in the series with β1-adrenergic receptor, the “β1 blocking activity, percentage inhibition” value is reported as -9%. In the series with α-adrenergic receptor, the “α blocking activity, percentage inhibition” value is “+7%”. Besides, the “β2 blocking activity, percentage inhibition” value in the series with β2-adrenergic receptor is “+9%”. The 50% lethal dose (LD50) in the series “in vivo” (Table 6, oral) is greater than 1000 mg/kg.
For `CCCC(=O)Nc1ccc(OCC(O)CNCCN(Cc2ccccc2)C(C)COc2ccccc2)c(C(C)=O)c1` (stereo not drawn) [Compound 28, 1-(4-butyrylamido-2-acetylphenoxy)-3-{β-[N-benzyl-N-(1-methyl-2-phenoxyethyl)]aminoethyl} amino-2-propanol], the “Heart rate (decrease)” value in the series “Effect on heart rate” is -8 beats/min. Also, the change in vivo at 1 mg/kg stood at 4% in series [1] (setting [3]) and 61% in series [1] (setting [4]). Also, the 50% lethal dose (LD50) in “in vivo” (Table 7, oral) fell in the range of 1000 to 2000 mg/kg.
With `COC(=O)c1ccccc1OCC(O)CNC(C)CCc1ccccc1` (stereo not shown) [Compound 15, 1-(2-methoxycarbonylphenoxy)-3-(1-methyl-3-phenylpropylamino)-2-propanol], the “β1 blocking activity, percentage inhibition” value in the series with β1-adrenergic receptor was -30%. In addition, the “α blocking activity, percentage inhibition” value with α-adrenergic receptor is reported as -2%. For the same compound, the “β2 blocking activity, percentage inhibition” value in the series on β2-adrenergic receptor is reported as -40%. Also, in “in vivo” (Table 6, oral), the 50% lethal dose (LD50) fell in the range of 500 to 1000 mg/kg.

The values above are taken from patent publication US4450115A, “Amino-alcohol derivatives” (Kyowa Hakko Kogyo Co., Ltd., priority 1979, dated 1984).
